Test results taken from patent US11713309B2, “Solid forms of Cerdulatinib” (Alexion Pharmaceuticals, Inc., priority 2018, dated 2023).
Structures can show the parent of a compound that is named as a salt.

Experiments:
Type in all cases: physicochemical
[1] = Thermodynamic aqueous solubility by HPLC; conditions: HPLC grade water, 25° C., 24 hours; second scale up material; listed as Comp. I HCl (formed using aqueous HCl) Form I
Protocol: The suspension was equilibrated at 25° C. for 24 hours. The suspension was then passed through a filter into an HPLC vial. The filtrate was then diluted by an appropriate factor. Quantification was executed by HPLC with reference to a standard solution of approximately 1 mg·mL^−1 in acetonitrile:water (1:1). Different volumes of the standard, diluted and undiluted sample solutions were injected. […] HPLC method parameters are described in Table 1 and Table 2.
Analysis was performed on an Agilent 1100 series liquid chromatography, equipped with a UV detector (DAD or VWD) @ 254 nm and using Chemstation Rev.B.01.03 software for data processing.
The solubility of the salts/co-crystals of Compound I prepared from the second scale up process was analyzed. The materials recovered after the solubility analysis were evaluated by XRPD to observe any form changes.

[2] = Slurry maturations in various solvents (form reproducibility/stability); conditions: acetonitrile, EtOAc, ethanol, IPA; cycling about 25 to about 50° C., about 4 days
Protocol: A series of slurry maturations in various solvents was performed to further analyze the form reproducibility/stability of the esylate, mesylate, HCl, and sulfate salts/co-crystals of Compound I. The solvents chosen were acetonitrile, EtOAc, ethanol, and IPA. The input materials were the salts/co-crystals of Compound I formed via the second scale up process. About 20 mg of each sample was charged to reflux tubes and heated with temperature cycling between about 25 and about 50° C. for about 4 days. The resulting materials were isolated by filtration and dried in vacuo at about 40° C. The results of the slurry maturations for the resulting HCl and mesylate salts/co-crystals are presented in subsections (a)-(d) below. The data for the resulting esylate and sulfate salts/co-crystals of Compound have been omitted due to notable form variation.

[3] = Dynamic vapor sorption (DVS) analysis
Text: In view of the DVS analysis, compound I HCl Form I may be characterized as a monohydrate.

[4] = Approximate kinetic solubility in organic solvents; conditions: kinetic from dmso stock
Text: (§1) A summary of the approximate kinetic solubility of Compound I HCl Form I in organic solvents, simulated biological fluids, and common pharmaceutical co-solvents is provided in Tables 8-10, respectively.

[5] = Approximate kinetic solubility in simulated biological fluids; conditions: about 37° C.; for solubility kinetic at 2 h: equilibrated for 2 hrs; for solubility kinetic at 1 day: equilibrated for 1 day
Text: as §1

[6] = Solid-state storage stability at controlled temperature/RH; conditions: for Form change / HPLC purity on storage: 2 weeks, initial HPLC purity 99.3%
Protocol: Storage at 25° C./60% RH and at 40° C./75% RH: Compound I HCl Form I was stored at 25° C./60% RH and at 40° C./75% RH. Initial HPLC purity was 99.3%.

[7] = Solution stability in buffer solutions; conditions: buffer solutions pH about 1.2 to about 10.0, about 60° C., 2 days
Protocol: The stability of Compound I HCl Form I in buffer solutions over a pH range of about 1.2 to about 10.0 was also evaluated. These solutions were stored at about 60° C., and assayed for pH and % remaining at 2 days.

[8] = Polymorphic stability at elevated temperatures
[9] = Storage under vacuum at 40° C. and at 60° C.; conditions: 4 days, initial HPLC purity 99.3%
Protocol: Storage under vacuum at 40° C. and at 60° C.: Compound I HCl Form I was stored under vacuum at 40° C. and at 60° C. Initial HPLC purity was 99.3%.

[10] = Low humidity testing
Protocol: Low Humidity testing: Compound I HCl salt Form I was placed under N2 and checked by in situ XRPD at 20 min and 60 minutes. […] HCl salt Form I was placed under N2 bleeding for ˜60 min and TGA and DSC were measured. […] (peak temperature).

[11] = Kinetic solubility in FeSSIF
[12] = simulated gastric fluid, SGF (pH 1.2)

CCS(=O)(=O)N1CCN(c2ccc(Nc3ncc(C(N)=O)c(NC4CC4)n3)cc2)CC1 [Compound I HCl Form I, 4-(cyclopropylamino)-2-(4-(4-(ethylsulfonyl)piperazin-1-yl)phenylamino)pyrimidine-5-carboxamide]
solubility [1]: 350 µg/mL
Form after slurry maturation (XRPD) [2]: does not experience any form change
De-hydration and re-hydration behaviour (DVS) [3]: reversible
RH at which complete moisture re-uptake is observed (DVS) [3]: about 20 % RH
DVS weight ([3]; below about 10% RH): up to 3.5%
DVS moisture uptake ([3]; between about 40% and about 90% RH): minimal moisture uptake with no hysteresis
solubility kinetic ([4]; Acetone, MeCN, IPA, EtOAc, THF, Dioxane, DCM, organic solvent or mixture): < 100 µg/mL
solubility kinetic ([4]; DMF, PEG300, organic solvent or mixture): 1000 to 10000 µg/mL
solubility kinetic ([4]; DMSO, organic solvent or mixture): 10000 to 33300 µg/mL
solubility kinetic ([4]; Methanol, Ethanol, PG, Safflower Seed Oil, Tween 80, organic solvent or mixture): 100 to 1000 µg/mL
solubility kinetic at 2 h ([5]; FaSSIF (pH 6.1)): 3 µg/mL
solubility kinetic at 1 day ([5]; FaSSIF (pH 6.1)): 3 µg/mL
solubility kinetic at 2 h ([5]; FeSSIF (pH 5.0)): 35 µg/mL
solubility kinetic at 1 day ([5]; FeSSIF (pH 5.0)): 39 µg/mL
solubility kinetic at 2 h [5, 12]: 67 µg/mL
solubility kinetic at 1 day [5, 12]: 78 µg/mL
Form change / HPLC purity on storage ([6]; 25° C./60% RH): No form change or decrease in purity by HPLC
Form change / HPLC purity on storage ([6]; 40° C./75% RH): No form change or decrease in purity by HPLC
Form change on storage (XRPD, TGA and DSC) ([6]; powder, about 6 months, about 40° C./75% RH, open dish): did not exhibit any form change
pH at which most stable in solution (% remaining) [7]: about 4.5
Polymorphism after re-hydrating post-TGA material (DSC) ([8]; 3 days at about 60% RH): no gross effect upon the polymorphism, but amorphous content did appear
Crystalline form after dry-heating (XRPD, DSC, proton NMR) ([8]; about 50° C., about 72 hours): did not change the crystalline form
Crystalline form after heating inside TGA ([8]; up to about 120° C. until approximately 3% weight loss): slight loss of crystallinity, but without a new form appearing
Form change / HPLC purity on storage under vacuum ([9]; 40° C.): No form change or decrease in purity by HPLC
Form change / HPLC purity on storage under vacuum ([9]; 60° C.): No form change or decrease in purity by HPLC
Form under N2 by in situ XRPD ([10]; N2 bleeding for 20 min, 10.2% RH): A new form was observed
Form after re-exposure to ambient conditions ([10]; after N2 bleeding): converted back to HCl salt Form I quickly
Kinetic solubility in FeSSIF (qualitative) ([11]; 37° C.): favorable kinetic solubility
Solubility (mg/mL) 1 h ([11]; 37° C., 1 h, drug loading ~10 mg/mL as freebase, listed as HC1 salt Form I): 0.049 mg/mL
Solubility (mg/mL) 2 h ([11]; 37° C., 2 h, listed as HC1 salt Form I): 0.031 mg/mL
Solubility (mg/mL) 4 h ([11]; 37° C., 4 h, listed as HC1 salt Form I): 0.010 mg/mL
Solubility (mg/mL) 24 h ([11]; 37° C., 24 h, listed as HC1 salt Form I): 0.0072 mg/mL
Final Form 2 h, 4 h, 24 h ([11]; XRPD of residual solids, 2 h, 4 h, 24 h): Freebase Form II
pH 1 h ([11]; supernatant, 1 h, listed as HC1 salt Form I): 4.9
pH 2 h ([11]; supernatant, 2 h, listed as HC1 salt Form I): 4.7
pH 4 h ([11]; supernatant, 4 h, listed as HC1 salt Form I): 4.7
pH 24 h ([11]; supernatant, 24 h, listed as HC1 salt Form I): 4.5
